From article PMC11352273, “The Proapoptotic Action of Pyrrolidinedione–Thiazolidinone Hybrids towards Human Breast Carcinoma Cells Does Not Depend on Their Genotype” (Cancers, 2024) come the findings set out here.

Experiment [1] concerns caspase 3/7 in MCF-7 cells. Description: Caspase-3/7 activity, FAM-FLICA flow cytometry. Particulars: MCF-7, 24 h. (In general: A flow cytometer gives signals particle by particle.)
Procedure: (§1) The assay was performed following the manufacturer’s instructions and the previously described methodology [25]. […] The cells were gathered, rinsed twice with chilled PBS, and reconstituted in an Apoptosis Wash Buffer. Then, 10 µL of freshly diluted FLICA solution was added to 290 µL of cell suspension and incubated for an hour at 37 °C. Following two rounds of washing with 2 mL of Apoptosis Wash Buffer, the cells were centrifuged, resuspended in 300 µL of the buffer, and then analyzed [25].
Experiment [2] concerns caspase 8 in MCF-7 cells. Description: Caspase-8 activity, FAM-FLICA flow cytometry. In kind it is cell-based, human. The settings on record: MCF-7, 24 h.
Procedure: as §1

In the case of `O=C1CC(N2C(=O)C(=CC(Cl)=Cc3ccc([N+](=O)[O-])cc3)SC2=S)C(=O)N1c1ccc(O)cc1` (stereo not shown) [Les-6287, 1-(4-hydroxyphenyl)-3-[5-[2-chloro-3-(4-nitrophenyl)prop-2-enylidene]-4-oxo-2-thioxothiazolidine-3-yl]pyrrolidine-2,5-dione], the “cells with active caspase 3/7” value is recorded as 21.38 ± 1.50% in experiment [1] (1 µM) and 47.08 ± 3.40% in experiment [1] (1.5 µM). The “cells with active caspase 8” value was 11.08 ± 1.30% in experiment [2] (1 µM) and 17.78 ± 5.19% in experiment [2] (1.5 µM).
